Data: patent publication US6509362B2, “N-phenylamide and N-pyridylamide derivatives, method of preparing them and pharmaceutical compositions containing them” (Merck Patent Gesellschaft mit Beschraenkter Haftung, priority 1997, dated 2003)

What was measured:
[1] = tested on: hepatic ACAT; test: Test A: in vitro hepatic ACAT inhibition in rat liver microsomes; type: biochemical, rat (male Wistar); conditions: 14C-oleyl coenzyme A, read-out: IC50 (concentration of compound inhibiting the ACAT activity by 50%)
Method: Test A: measurement of in vitro hepatic ACAT inhibition in rats: male Wistar rats weighing 220-250 g were sacrificed by cervical dislocation; the liver was removed and homogenised to prepare the microsomal fraction by ultracentrifugation; these microsomes were incubated with ^14C-oleyl coenzyme A according to the method described by P. J. GILLIES et al., Exp. and Mol. Pathol. 1986, 44, 329-339; lipids were extracted from the incubate with a methanol-chloroforme mixture and ^14C-oleyl cholesterol was separated by TLC; the latter represented the measurement of the ACAT activity and the results were expressed in inhibitory concentration 50 (IC50) representing the concentration of compound inhibiting the ACAT activity by 50%.

[2] = tested on: intestinal absorption of cholesterol; test: Test B: intestinal absorption of cholesterol in rats; type: in vivo, rat (male Wistar); conditions: Rattus norvegicus; per os, rats fasted 24 h, triton WR 1339 IV, 3H-cholesterol in serum; read-out: ED50 (quantity of compound inhibiting the intestinal absorption of cholesterol by 50%)
Method: Test B: measurement of intestinal absorption of cholesterol in rats; […]; one hour later, […]; three hours later, 1 ml of blood was taken from the retro-orbital sinus: the blood radioactivity determined on 0.1 ml of serum represented the measurement of the absorption of ^3H-cholesterol. The results were expressed in effective dose 50 (ED50) in mg per kg of animal and represented the quantity of compound inhibiting the intestinal absorption of cholesterol by 50%.

[3] = tested on: male Wistar rat fed a 2.5% cholesterol enriched diet; test: Test C: hypercholesterolemia model, cholesterol-fed rat; type: in vivo; conditions: dose 0.78 mg/kg, oral
Method: (§1) Test C: hypercholesterolemia model; claim 1 compounds were tested by oral route in animals subjected to a cholesterol-rich diet;

[4] = tested on: rabbit fed a 0.5% cholesterol enriched diet; test: Test C: hypercholesterolemia model, cholesterol-fed rabbit; type: in vivo; conditions: dose 0.1 mg/kg, oral
Method: as §1

| Structure (SMILES) | IC50 [1] [nM] | ED50 [2] [mg/kg] | total cholesterol lowered ([3]; 2.5% cholesterol diet for 8 days, treated for 2 days) [%] | lipoprotein fraction on which the effect was observed ([3]; cholesterol-fed rat) | total cholesterol decreased ([4]; 0.5% cholesterol diet for 15 days, treated simultaneously) [%] | lipoprotein fraction on which the effect was observed ([4]; cholesterol-fed rabbit) | melting point [°C] |
| --- | --- | --- | --- | --- | --- | --- | --- |
| CSc1cc(C)nc(SC)c1NC(=O)CC1=C(c2ccccc2)c2ccccc2OC1 [Example 1, N-[2,4-Dimethylthio-6-methyl-3-pyridyl]-2-(4-phenyl-2H-3-benzo[b]pyranyl)acetamide] | 94 | 0.005 | 50 | mainly observed on VLDL | 70 | mainly observed on VLDL |  |
| CSc1cc(C)nc(SC)c1NC(=O)CC1=C(c2ccccc2)c2ccccc2CC1 [Example 4] | 74 | 0.038 |  |  |  |  | 218 to 220 |
| CSc1cc(C)nc(SC)c1NC(=O)CC1=C(c2ccc(F)cc2)c2ccccc2OC1 [Example 6] | 31 | 0.023 |  |  |  |  | 234 to 236 |
| CSc1cc(C)nc(SC)c1NC(=O)CC=CC1=C(c2ccccc2)c2ccccc2OC1 [Example 17, N-[2,4-Dimethylthio-6-methyl-3-pyridyl]-4-(4-phenyl-2H-3-benzo[b]pyranyl)but-3-enamide] |  |  |  |  |  |  | 204 to 206 |
